Source: the NIST ThermoML archive (doi:10.1016/j.fluid.2011.03.012)
Numbers after ± are expanded uncertainties.

Tests used:
[1] = Molar enthalpy of transition or fusion; conditions: Crystal; DSC
[2] = Crystal; DTA

Molar enthalpy of transition or fusion [1]: 10.5 ± 0.287 kcal/mol
Normal melting temperature [2]: 263.6 ± 1.4 °C
SMILES: Cc1cnc(NC(=O)C2=C(O)c3ccccc3S(=O)(=O)N2C)s1 [meloxicam]
